“And” between values parts separate entries of the source, which are not always exact repeats. Equal values may be shown once. Toxic doses and inconclusive results are not listed.
Tested on: BDF1 mice, B16 melanoma ip, median survival T/C
Assay: NCI In Vivo Anticancer Drug Screen. Data for tumor model B16 Melanoma (intraperitoneal) in B6D2F1 (BDF1) mice
Details: endpoint: median survival time, higher = longer survival
Procedure, shortened: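 Read-out: survival or tumor size, given as treated/control ratio. Controls received vehicle only; animals bore transplantable tumors.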

[1] = dose: 25.0 mg/kg/injection, schedule: Q01DX009 (ip), vehicle: saline with Tween-80
[2] = dose: 50.0 mg/kg/injection, schedule: Q01DX009 (ip), vehicle: saline with Tween-80
[3] = dose: 100.0 mg/kg/injection, schedule: Q01DX009 (ip), vehicle: saline with Tween-80
[4] = dose: 50.0 mg/kg/injection, schedule: Q01DX009 (ip), vehicle: Klucel (hydroxypropylcellulose) (HPC)
[5] = dose: 200.0 mg/kg/injection, schedule: Q01DX009 (ip), vehicle: Klucel (hydroxypropylcellulose) (HPC)
[6] = dose: 50.0 mg/kg/injection, schedule: Q04DX003 (ip), vehicle: saline with Tween-80
[7] = dose: 100.0 mg/kg/injection, schedule: Q04DX003 (ip), vehicle: saline with Tween-80
[8] = dose: 200.0 mg/kg/injection, schedule: Q01DX009 (ip), vehicle: saline with Tween-80
[9] = dose: 100.0 mg/kg/injection, schedule: Q01DX009 (ip), vehicle: Klucel (hydroxypropylcellulose) (HPC)
[10] = dose: 12.5 mg/kg/injection, schedule: Q01DX009 (ip), vehicle: saline with Tween-80

SMILES: CC(=O)CC(=O)NCCN1CCN=C1C
- T/C (dose: 100.0 mg/kg/injection, schedule: Q01DX009 (ip), vehicle: saline): 109 % of control
- T/C (dose: 200.0 mg/kg/injection, schedule: Q01DX009 (ip), vehicle: saline): 116 % of control
- T/C (dose: 400.0 mg/kg/injection, schedule: Q01DX009 (ip), vehicle: saline): 110 % of control

SMILES: Cc1cc(/C=C/c2cc[n+](C)c3ccccc23)c(O)c2ncccc12
- T/C (dose: 3.0 mg/kg/injection, schedule: Q01DX009 (ip), vehicle: saline sonified): 104 % of control
- T/C (dose: 6.0 mg/kg/injection, schedule: Q01DX009 (ip), vehicle: saline sonified): 97 % of control
- T/C (dose: 12.0 mg/kg/injection, schedule: Q01DX009 (ip), vehicle: saline sonified): 97 % of control
- T/C (dose: 24.0 mg/kg/injection, schedule: Q01DX009 (ip), vehicle: saline sonified): 100 % of control
- T/C (dose: 48.0 mg/kg/injection, schedule: Q01DX009 (ip), vehicle: saline sonified): 104 % of control

SMILES: COc1c(C)c2c(c(O)c1C/C=C(\C)CCC(=O)O)C(=O)OC2
- T/C (dose: 6.25 mg/kg/injection, schedule: Q01DX009 (ip), vehicle: distilled water + Tween-80): 96 % of control
- T/C (dose: 12.5 mg/kg/injection, schedule: Q01DX009 (ip), vehicle: distilled water + Tween-80): 95 % of control
- T/C (dose: 25.0 mg/kg/injection, schedule: Q01DX009 (ip), vehicle: distilled water + Tween-80): 107 % of control
- T/C (dose: 50.0 mg/kg/injection, schedule: Q01DX009 (ip), vehicle: distilled water + Tween-80): 94 % of control
- T/C (dose: 100.0 mg/kg/injection, schedule: Q01DX009 (ip), vehicle: distilled water + Tween-80): 104 % of control
- T/C (dose: 200.0 mg/kg/injection, schedule: Q01DX009 (ip), vehicle: distilled water + Tween-80): 104 % of control

SMILES: O=C1c2c(O)ccc(O)c2C(=O)c2c(NCCNCCO)ccc(NCCNCCO)c21
- T/C (dose: 0.13 mg/kg/injection, schedule: Q01DX009 (ip), vehicle: saline with Tween-80): 110 % of control
- T/C (dose: 0.25 mg/kg/injection, schedule: Q01DX009 (ip), vehicle: saline): 186 % of control and 188 % of control
- T/C (dose: 0.25 mg/kg/injection, schedule: Q01DX009 (ip), vehicle: water): 157 % of control and 160 % of control and 174 % of control
- T/C (dose: 0.25 mg/kg/injection, schedule: Q01DX009 (oral), vehicle: acid diluted with saline): 98 % of control
- T/C (dose: 0.5 mg/kg/injection, schedule: Q01DX009 (ip), vehicle: saline): 218 % of control
- T/C (dose: 0.5 mg/kg/injection, schedule: Q01DX009 (ip), vehicle: water): 218 % of control and 225 % of control and 247 % of control
- T/C (dose: 0.5 mg/kg/injection, schedule: Q01DX009 (oral), vehicle: acid diluted with saline): 104 % of control
- T/C (dose: 1.0 mg/kg/injection, schedule: Q01DX009 (ip), vehicle: saline with Tween-80): 152 % of control and 156 % of control
- T/C (dose: 1.0 mg/kg/injection, schedule: Q01DX009 (ip), vehicle: saline): 260 % of control and 267 % of control
- T/C (dose: 1.0 mg/kg/injection, schedule: Q01DX009 (ip), vehicle: water): 121 % of control and 202 % of control and 261 % of control
- T/C (dose: 1.25 mg/kg/injection, schedule: Q01DX001 (ip), vehicle: acid diluted with saline): 153 % of control
- T/C (dose: 2.0 mg/kg/injection, schedule: Q01DX001 (ip), vehicle: water): 212 % of control
- T/C (dose: 2.0 mg/kg/injection, schedule: Q01DX009 (ip), vehicle: saline): 207 % of control and 251 % of control
- T/C (dose: 2.0 mg/kg/injection, schedule: Q01DX009 (ip), vehicle: water): 221 % of control
- T/C (dose: 2.5 mg/kg/injection, schedule: Q01DX001 (ip), vehicle: acid diluted with saline): 123 % of control and 205 % of control
- T/C (dose: 4.0 mg/kg/injection, schedule: Q01DX001 (ip), vehicle: water): 202 % of control
- T/C (dose: 8.0 mg/kg/injection, schedule: Q01DX001 (ip), vehicle: water): 303 % of control

SMILES: Nc1nc(SCc2ccccc2)c2ncn(C3CC(O)C(CO)O3)c2n1 (configuration not stated)
- T/C (dose: 4.25 mg/kg/injection, schedule: Q01DX009 (ip), vehicle: saline): 111 % of control
- T/C (dose: 8.5 mg/kg/injection, schedule: Q01DX009 (ip), vehicle: saline): 113 % of control
- T/C (dose: 17.0 mg/kg/injection, schedule: Q01DX009 (ip), vehicle: saline): 94 % of control
- T/C (dose: 34.0 mg/kg/injection, schedule: Q01DX009 (ip), vehicle: saline): 93 % of control

SMILES: CCCC(C)c1ccccc1O (configuration not stated)
- T/C [1]: 108 % of control
- T/C [2]: 108 % of control
- T/C [3]: 92 % of control

SMILES: O=C(O)CN(CCN(CC(=O)O)CC(=O)O)CCN(CC(=O)O)CC(=O)O
- T/C (dose: 3.12 mg/kg/injection, schedule: Q01DX009 (ip), vehicle: Klucel (hydroxypropylcellulose) (HPC)): 94 % of control
- T/C (dose: 6.25 mg/kg/injection, schedule: Q01DX009 (ip), vehicle: Klucel (hydroxypropylcellulose) (HPC)): 93 % of control and 94 % of control
- T/C (dose: 12.5 mg/kg/injection, schedule: Q01DX009 (ip), vehicle: Klucel (hydroxypropylcellulose) (HPC)): 102 % of control
- T/C (dose: 25.0 mg/kg/injection, schedule: Q01DX009 (ip), vehicle: Klucel (hydroxypropylcellulose) (HPC)): 96 % of control
- T/C [4]: 88 % of control
- T/C [5]: 92 % of control

SMILES: OC(CCCCl)CC(O)(C(F)(F)F)C(F)(F)F (configuration not stated)
- T/C [2]: 111 % of control
- T/C [6]: 112 % of control
- T/C [3]: 102 % of control
- T/C [7]: 115 % of control
- T/C [8]: 108 % of control
- T/C (dose: 200.0 mg/kg/injection, schedule: Q04DX003 (ip), vehicle: saline with Tween-80): 120 % of control

SMILES: CS(=O)(=O)c1cc(=O)[nH]c(=O)[nH]1
- T/C [1]: 95 % of control
- T/C [3]: 92 % of control

SMILES: O=C(O)C1CCCN1CCc1ccccc1 (configuration not stated)
- T/C (dose: 100.0 mg/kg/injection, schedule: Q04DX003 (ip), vehicle: saline): 98 % of control
- T/C (dose: 200.0 mg/kg/injection, schedule: Q04DX003 (ip), vehicle: saline): 103 % of control
- T/C (dose: 400.0 mg/kg/injection, schedule: Q04DX003 (ip), vehicle: saline): 102 % of control

SMILES: O=[N+]([O-])c1ccc2nc(-c3ccccc3)c(-c3ccccc3)nc2c1
- T/C [9]: 102 % of control
- T/C [5]: 88 % of control

SMILES: CC(C)(C)CC(C)(C)CC(C)(C)NCCCN
- T/C (dose: 6.25 mg/kg/injection, schedule: Q01DX009 (ip), vehicle: saline with Tween-80): 105 % of control
- T/C [10]: 91 % of control
- T/C [1]: 86 % of control

SMILES: CC1CCC2C1C1C(CCC2(C)O)C1(C)C (configuration not stated)
- T/C (dose: 75.0 mg/kg/injection, schedule: Q01DX009 (ip), vehicle: Klucel (hydroxypropylcellulose) (HPC)): 97 % of control
- T/C (dose: 150.0 mg/kg/injection, schedule: Q01DX009 (ip), vehicle: Klucel (hydroxypropylcellulose) (HPC)): 94 % of control
- T/C (dose: 300.0 mg/kg/injection, schedule: Q01DX009 (ip), vehicle: Klucel (hydroxypropylcellulose) (HPC)): 97 % of control

SMILES: C=C1OC(=O)OC1(C)CC(OC)OC (configuration not stated)
- T/C [3]: 102 % of control
- T/C [8]: 113 % of control
- T/C (dose: 400.0 mg/kg/injection, schedule: Q01DX009 (ip), vehicle: saline with Tween-80): 108 % of control

SMILES: O=C(/C=C/c1cccc2ccccc12)c1ccc(Cl)cc1
- T/C [4]: 92 % of control
- T/C (dose: 50.0 mg/kg/injection, schedule: Q04DX003 (ip), vehicle: Klucel (hydroxypropylcellulose) (HPC)): 103 % of control
- T/C [9]: 96 % of control
- T/C (dose: 100.0 mg/kg/injection, schedule: Q04DX003 (ip), vehicle: Klucel (hydroxypropylcellulose) (HPC)): 100 % of control
- T/C [5]: 92 % of control
- T/C (dose: 200.0 mg/kg/injection, schedule: Q04DX003 (ip), vehicle: Klucel (hydroxypropylcellulose) (HPC)): 93 % of control

SMILES: O=[N+]([O-])c1cc([N+](=O)[O-])c(Br)cc1Cl
- T/C (dose: 2.5 mg/kg/injection, schedule: Q01DX009 (ip), vehicle: saline with Tween-80): 92 % of control
- T/C (dose: 5.0 mg/kg/injection, schedule: Q01DX009 (ip), vehicle: saline with Tween-80): 98 % of control
- T/C (dose: 10.0 mg/kg/injection, schedule: Q01DX009 (ip), vehicle: saline with Tween-80): 87 % of control
- T/C (dose: 20.0 mg/kg/injection, schedule: Q01DX009 (ip), vehicle: Klucel (hydroxypropylcellulose) (HPC)): 94 % of control

SMILES: Cc1c[n+]2c3ccccc3c3ccccc3c2s1
- T/C (dose: 10.0 mg/kg/injection, schedule: Q01DX009 (ip), vehicle: saline): 105 % of control
- T/C (dose: 20.0 mg/kg/injection, schedule: Q01DX009 (ip), vehicle: saline): 105 % of control

SMILES: CC(C)=CN1CCCCC1
- T/C [10]: 101 % of control
- T/C [1]: 105 % of control
- T/C (dose: 25.0 mg/kg/injection, schedule: Q04DX003 (ip), vehicle: saline with Tween-80): 104 % of control
- T/C [2]: 108 % of control
- T/C [6]: 109 % of control
- T/C [7]: 90 % of control
- T/C [8]: 86 % of control

SMILES: CC(=O)Nc1cc(NC(C)=O)cc(N(CCCl)CCCl)c1
- T/C (dose: 6.25 mg/kg/injection, schedule: Q01DX009 (ip), vehicle: water): 119 % of control
- T/C (dose: 12.5 mg/kg/injection, schedule: Q01DX009 (ip), vehicle: water): 115 % of control

Source: PubChem BioAssay AID192 (DTP/NCI, 2004)
